From patent publication US20180064662A1 (THE GENERAL HOSPITAL CORPORATION, priority 2015, published 2018)

System: PAN02 tumors
From the text: All experimental use of animals was approved by the institutional animal care and use committee at Massachusetts General Hospital (MGH). All animal procedures abided by Public Health Service Policy on Humane Care of Laboratory Animals guidelines. All mice were bred and maintained MGH animal facility. Wild-type (WT) C57BL/6 mice were originally obtained from the Jackson Laboratory (The Jackson Laboratory, Bar Harbor, Me.) but were bred and maintained in a defined-flora colony. VEGFR1 tyrosine kinase-knockout mice (Flt1^TK−/−) of mixed C57BL/6 and SV129 strain background were originally developed at the University of Tokyo, Japan (Hiratsuka et al. Proc Natl Acad Sci USA (1998)95(16): 9349-54), and subsequently backcrossed to 99.9% C57BL/6 strain background (N10 equivalent) at Massachusetts General Hospital. Strain background was verified by the Jackson Laboratory's Speed Congenic Development Service. Genotyping was performed using polymerase chain reaction (PCR) analysis, as previously described (Hiratsuka et al.). Age-matched animals were used for all experiments. Mice were maintained on a 12-h light-dark cycle in a temperature-controlled barrier facility, with ad libitum access to food and acidified water, unless otherwise specified.
Mice (7-week old) were given either 10% or a 60% fat diet (D12450J and D12492, Research Diets, New Brunswick, N.J.) for 10 weeks, as described in Surwit et al. Metabolism (1995) 44(5):645-51. Body weight was monitored weekly and mice on a high-fat diet were defined as obese if their body weight was greater than 3 SD above the weight of the low fat diet group. At the end of the experiment, animals were weighed and euthanized, and the inguinal, perigonadal, and perineal fat pads were excised and weighed.
Glucose (GTT) and insulin tolerance tests (ITT) were performed after 8 and 9 weeks on the diet, respectively. Male mice were fasted for 16 hours (5pm-9am) for GTT, or 3 hours (9am-12pm) for ITT. Glucose (0.75 mg/g body weight) or insulin (1U/kg body weight) was administered by intraperitoneal (i.p.) injection, and tail blood was sampled at 0, 15, 30, 60, 90, and 120 minutes after administration of glucose/insulin. Blood glucose levels were measured using a Precision Xtra glucose meter (Abbott Diagnostics, Bedford, MA, USA). Glucose tolerance was evaluated calculating the area under the curve (AUC) for each mouse according to the following equation: […]
C57BL/6 VEGFR1(TK)−/− or WT obese and lean mice (after 10 weeks of diets) were used for tumor implantation studies. To induce pancreatic tumors, small (˜1 mm in diameter) chunks from a PAN02 pancreatic tumor source were grafted in the pancreata of obese and lean male mice. To induce breast tumors, 1×10^6 E0771 breast cancer cells were implanted in the mammary fat pad of lean and obese female mice. About 3 weeks after implantation, tumors were removed and tissue was assessed for immune cell infiltration, gene and protein expression of inflammatory, metabolic and major signaling pathway markers. Plasma was also collected and assessed for insulin, IGF-1, glucose and inflammatory markers (see below). Metastatic burden was assessed by counting lung metastasis in the E0771 breast cancer model, and evaluating abdominal wall invasion as well as mesentery metastasis in the PAN02 pancreatic cancer model. For abdominal wall invasion, animals were scored from 0 to 3 based on the extent of invasion: 0=no invasion, 1=less than 3 metastasis, 2=less than 6 metastasis, 3=more than 6 metastasis.
Immediately following excision, tumor tissue was snap frozen and stored in liquid nitrogen until used. Total RNA was extracted and relative gene expression was determined using RT2 Profiler PCR Arrays system (Qiagen) on a Stratagene Mx3000P QPCR System.

[1] = VEGFR-1 inhibition and metformin combined

## CN(C)C(=N)N=C(N)N [metformin, 3-(diaminomethylidene)-1,1-dimethylguanidine]
[1]
  pericyte coverage in tumors: increased pericyte coverage
  vessel density in tumor and adipose tissue: unaltered vessel density
Combination group
  tumor cell apoptosis: increased tumor cell apoptosis
  tumor cell proliferation: decreased proliferation
Combination group compared to control or anti-VEGFR-1 alone
  fraction of perfused vessels: significantly higher
Obese Flt1TK-/- mice with metformin
  IR/IGF-1 signaling or AMPK/ACC activation: no changes
Obese Flt1TK-/- mice, 3 weeks after implantation of PAN02
  plasma insulin: prevented the increased insulin
Obese mice, VEGFR-1 inhibition and metformin combined
  PAN02 tumor weight: at its lowest
Obese tumors
  expression of major gluconeogenic genes downregulated by VEGFR-1 inhibition: restored expression of major gluconeogenic genes
